Patent publication US20020065279A1, “Arylsulfonic acid salts of pyrimidine-based antiviral” (priority 2000, published 2002)
Where a name gives a salt, the structure may show the parent alone. Read-outs that look alike come from different tables or passages of the source.

Legend:
[1] = Acid selection: salt formation of compound 1 with acids; type: physicochemical
Source text: In order to prepare suitable formulations of the compounds of formula I below, standard salt formation methods were pursued. […] These acids represent most of the pharmaceutical salts used today.

[2] = Aqueous solubility of compound 1 free base and salts; type: physicochemical
Source text: A variety of pyrimidine-based antiviral compounds have been described in co-pending U.S. Ser. No. 09/249,64 1, filed Feb. 12, 1999 and in PCT application US99/03136. The development of a pyrimidine-based antiviral agent (such as those described hereinbelow) for clinical use required the identification of a salt form with optimal physical and chemical properties. The most critical properties included crystallinity, aqueous solubility, light stability and thermal stability. As noted above, applications U.S. Ser. No. 09/249,641 and PCT US99/03136 describe pyrimidine derivatives both as free bases and as their pharmaceutically acceptable salts. Among the salts listed for this group of compounds exre hydrochloric, hydrobromic, nitric, carbonic, monohydrogencarbonic, phosphoric, monohydrogenphosphoric, dihydrogenphosphoric, sulfuric, monohydrogensulfuric, hydriodic, or phosphorous acids and the like, as well as the salts derived from organic acids like acetic, propionic, isobutyric, oxalic, maleic, malonic, benzoic, succinic, suberic, fumaric, mandelic, phthalic, benzenesulfonic, p-tolylsulfonic, citric, tartaric, miethanesulfonic, and the like. Also included are salts of amino acids such as arginate and the like, and salts of organic acids like glucuronic or galactunoric acids and the like.
The besilate and tosylate salts represent improvement over the free base in solubility as described in Table 2 below. The increase in solubility represents a significant advantage over the free base for formulations that are suitable for therapeutic administration.

[3] = Thermal stability of salts at 45° C. (HPLC purity); type: physicochemical
[4] = Light stability of salts (ambient light and window glass filtered sunlight, HPLC purity); type: physicochemical
[5] = Aqueous stability of salts in deionized water (HPLC, UV 254.4 nm); type: physicochemical
Method: The tosylate salts was evaluated at a concentration of 4.7 mg/mL and the besilate salt was evaluated at a concentration of 3.2 mg/mL. Stability was monitored via HPLC using UV detection at 254.4 nm.

[6] = pKa of the free base of compound 1
[7] = first printed pKa of the acid; cited from earlier work

O=C(O)c1cccc(O)c1 [3-Hydroxybenzoic]
Result (salt formation with compound 1) ([1]; Solvent EtOAc): No salt formed

CC(=O)O [Acetic]
Result (salt formation with compound 1) ([1]; Solvent Et2O): No salt formed

O=C(O)c1ccccc1 [Benzoic]
Result (salt formation with compound 1) ([1]; Solvent Et2O): No salt formed | Result (salt formation with compound 1) ([1]; Solvent EtOAc): No salt formed

Cc1nc(N2CCOCC2C)nc(-n2ccnc2)c1[N+](=O)[O-] (stereo not drawn) [Besilate Salt, 2-(3S-3-methylmorpholino)-4-(imidazol-1-yl)-6-methyl-5-nitropyrimidine benzenesulfonate]
Aqueous Solubility ([2]; listed as Resilate Salt): 44 mg/mL | purity %, HPLC (thermal stability) ([3]; 8 hours): 100% | purity %, HPLC (thermal stability) ([3]; 24 hours): 100% | purity %, HPLC (thermal stability) ([3]; 48 hours): 100% | purity %, HPLC (thermal stability) ([3]; 72 hours): 100% | purity %, HPLC (thermal stability) ([3]; 170 hours): 100% | purity %, HPLC (thermal stability) ([3]; 250 hours): 100% | purity %, HPLC (thermal stability) ([3]; 1632 hours): 100% | purity %, HPLC (light stability) ([4]; 24 hours): 100% | purity %, HPLC (light stability) ([4]; 48 hours): 100% | purity %, HPLC (light stability) ([4]; 216 hours): 97.3% | purity %, HPLC (light stability) ([4]; 1560 hours): 93.1% | purity %, HPLC (aqueous stability) ([5]; 3.2 mg/mL, 48 hours): 100% | purity %, HPLC (aqueous stability) ([5]; 3.2 mg/mL, 147 hours): 100% | purity %, HPLC (aqueous stability) ([5]; 3.2 mg/mL, 171 hours): 97.4% | purity %, HPLC (aqueous stability) ([5]; 3.2 mg/mL, 201 hours): 91.7% | purity %, HPLC (aqueous stability) ([5]; 3.2 mg/mL, 216 hours): 91.7% | purity %, HPLC (aqueous stability) ([5]; 3.2 mg/mL, 1560 hours): 61.4%

O=C(O)CC(O)(CC(=O)O)C(=O)O [Citric]
Result (salt formation with compound 1) ([1]; Solvent Et2O): No salt formed | Result (salt formation with compound 1) ([1]; Solvent EtOAc): No salt formed | Result (salt formation with compound 1) ([1]; Solvent EtOAc/MeOH): No salt formed

Cc1nc(N2CCOCC2C)nc(-n2ccnc2)c1[N+](=O)[O-] (stereo not drawn) [Compound 1, 2-(3S-3-methylmorpholino)-4-(imidazol-1-yl)-6-methyl-5-nitropyrimidine]
Aqueous Solubility [2]: 1.68 mg/mL | pKa [6]: 4.09

O=C(O)[C@@H](O)[C@H](O)C(=O)O [D-Tartaric]
Result (salt formation with compound 1) ([1]; Solvent EtOAc): No salt formed | Result (salt formation with compound 1) ([1]; Solvent MeOH): No salt formed

O=CO [Formic]
Result (salt formation with compound 1) ([1]; Solvent EtOH): No salt formed

Br [Hydrobromic]
Result (salt formation with compound 1) ([1]; Solvent EtOH): Decomposition

Cl [Hydrochloric]
Result (salt formation with compound 1) ([1]; Solvent CH3CN): Decomposition | Result (salt formation with compound 1) ([1]; Solvent CHCl3): Decomposition | Result (salt formation with compound 1) ([1]; Solvent Et2O): Decomposition | Result (salt formation with compound 1) ([1]; Solvent EtOAc): Decomposition | Result (salt formation with compound 1) ([1]; Solvent IPA): Decomposition | Result (salt formation with compound 1) ([1]; Solvent MeOH): Decomposition

O=C(O)/C=C\C(=O)O [Maleic]
Result (salt formation with compound 1) ([1]; Solvent Et2O): No salt formed | Result (salt formation with compound 1) ([1]; Solvent EtOAc): No salt formed

CS(=O)(=O)O [Methanesulfonic]
Result (salt formation with compound 1) ([1]; Solvent CH2Cl2): Decomposition | Result (salt formation with compound 1) ([1]; Solvent Et2O): Decomposition | Result (salt formation with compound 1) ([1]; Solvent EtOAc): Decomposition | Result (salt formation with compound 1) ([1]; Solvent EtOAc/CH2Cl2): Decomposition | Result (salt formation with compound 1) ([1]; Solvent EtOAc/hexanes): Decomposition

O=[N+]([O-])O [Nitric]
Result (salt formation with compound 1) ([1]; Solvent EtOH): Decomposition | pKa (acid) [7]: −1.4

O=C(O)c1ccccc1O [Salicylic]
Result (salt formation with compound 1) ([1]; Solvent Et2O): No salt formed | Result (salt formation with compound 1) ([1]; Solvent EtOAc): No salt formed

NC(=O)CCC(=O)O [Succinamic]
Result (salt formation with compound 1) ([1]; Solvent EtOAc): No salt formed | Result (salt formation with compound 1) ([1]; Solvent EtOAc/MeOH): No salt formed | pKa (acid) [7]: 4.4

O=S(=O)(O)O [Sulfuric]
Result (salt formation with compound 1) ([1]; Solvent EtOH): Decomposition

Cc1ccc(S(=O)(=O)O)cc1 [Toluenesulfonic]
Result (salt formation with compound 1) ([1]; Solvent CHCl3/hexanes): Yellow crystals | Result (salt formation with compound 1) ([1]; Solvent EtOAc): Yellow crystals

Cc1nc(N2CCOCC2C)nc(-n2ccnc2)c1[N+](=O)[O-] (stereo not drawn) [Tosylate Salt, 2-(3S-3-methylmorphoamino)-4-(imidazol-1-yl)-6-methyl-5-nitropyrimidine p-toluenesulfonate]
Aqueous Solubility [2]: 36 mg/mL | purity %, HPLC (thermal stability) ([3]; 8 hours): 100% | purity %, HPLC (thermal stability) ([3]; 24 hours): 100% | purity %, HPLC (thermal stability) ([3]; 48 hours): 100% | purity %, HPLC (thermal stability) ([3]; 72 hours): 100% | purity %, HPLC (thermal stability) ([3]; 170 hours): 100% | purity %, HPLC (thermal stability) ([3]; 250 hours): 100% | purity %, HPLC (thermal stability) ([3]; 1632 hours): 100% | purity %, HPLC (light stability) ([4]; 24 hours): 100% | purity %, HPLC (light stability) ([4]; 48 hours): 100% | purity %, HPLC (light stability) ([4]; 216 hours): 97.6% | purity %, HPLC (light stability) ([4]; 1560 hours): 86.6% | purity %, HPLC (aqueous stability) ([5]; 4.7 mg/mL, 48 hours): 100% | purity %, HPLC (aqueous stability) ([5]; 4.7 mg/mL, 147 hours): 100% | purity %, HPLC (aqueous stability) ([5]; 4.7 mg/mL, 171 hours): 97.3% | purity %, HPLC (aqueous stability) ([5]; 4.7 mg/mL, 201 hours): 93.1% | purity %, HPLC (aqueous stability) ([5]; 4.7 mg/mL, 216 hours): 92.8% | purity %, HPLC (aqueous stability) ([5]; 4.7 mg/mL, 1560 hours): 64.6%

Benzenesulfonic
Result (salt formation with compound 1) ([1]; Solvent CH2Cl2/hexanes): Yellow crystals | Result (salt formation with compound 1) ([1]; Solvent CH3CN): Yellow crystals | Result (salt formation with compound 1) ([1]; Solvent CHCl3/hexanes): Yellow crystals | Result (salt formation with compound 1) ([1]; Solvent EtOAc/MeOH): Yellow crystals | Result (salt formation with compound 1) ([1]; Solvent EtOH): Yellow crystals | Result (salt formation with compound 1) ([1]; Solvent EtOH/hexanes): Yellow crystals | pKa (acid) [7]: 1.6

Fumaric
Result (salt formation with compound 1) ([1]; Solvent EtOAc/MeOH): No salt formed

L-Tartaric
Result (salt formation with compound 1) ([1]; Solvent Et2O): No salt formed | Result (salt formation with compound 1) ([1]; Solvent EtOAc): No salt formed | Result (salt formation with compound 1) ([1]; Solvent EtOH): No salt formed | Result (salt formation with compound 1) ([1]; Solvent MeOH): No salt formed
